Values quoted from earlier work in US10864304B2, “Anti-infective antimicrobial-containing biomaterials” (ATRIUM MEDICAL CORPORATION, priority 2009, dated 2020).

Test system: bacteria
Details: previously reported (K. C. Chaw et al. 2005)

Compound: [Ag] [silver]
- amount of silver needed to produce an antimicrobial effect: ~50 ppb
